From patent US5952307A, “Basic α-aminoalkylphosphonate derivatives” (priority 1997, dated 1999)
Like-named read-outs stand apart in the source and are kept apart here.

Tests used:
factor Xa = biological target: T1, factor Xa (Homo sapiens, UniProt P00742); assay: Inactivation rate of factor Xa, incubation method; type: biochemical; details: Table II; 0.42 μM factor Xa, 66 μM inhibitor, 80 mM Hepes pH 7.5, 428 mM NaCl, 8% DMSO, 25° C.
T1 construct: human thrombin, factor Xa, plasmin
Method: (§1) Inactivation rates of serine proteases by aryl diesters of peptidyl derivatives of α-aminoalkylphosphonates were measured by the incubation method. An aliquot of inhibitor (25 or 50 μl) in Me2 SO was added to a buffered enzyme solution (0.01-2.3 μM) to initiate the inactivation. Aliquots (50 μl) were withdrawn at various intervals and the residual enzymatic activity was measured. Me2 SO concentration in the reaction mixture was 8-12% (v/v). A 0.1 M HEPES, 0.01 M CaCl2, pH 7.5 buffer was utilized for trypsin and trypsin-like enzymes. A 0.1 M HEPES, 0.5 M NaCl, pH 7.5, was utilized for the other serine proteases. Peptide thioesters or peptide nitroanilides with the appropriate sequences were used as substrates for various serine proteases. All peptide thioesters hydrolysis rates were measured with the assay mixture containing 4,4'-dithiodipyridine {ε324 =19800 M^-1 cm^-1; Grasetti & Murray, Arch. Biochem. Biophys. 1967, 119, 41-48}. Peptide 4-nitroanilide hydrolysis was measured at 410 nm {ε410 =8800 M^-1 cm^-1; Erlanger et al., Arch. Biochem. Biophys. 1961, 95, 271-278}. First order inactivation rate constants (Kobs) were obtained from plots of In vt /vo vs time, and the correlation coefficients were greater then 0.98.
^a Enzyme was incubated with the inhibitor in 250 μL of the proper
NaCl, 0.8 mM Mes, 9% glycerol and 8% DMSO; 0.42 μM factor Xa, 66 μM
inhibitor in an 80 mM Hepes, pH 7.5 buffer containing 428 mM NaCl and 8%
DMSO. Aliquots of 25 μL were withdrawn at various intervals and the
(§2) residual enzymatic activity was measured as described in experimental
(§3) section. The kobs values were calculated from pseudofirst-order

bovine trypsin [1] = biological target: T2, bovine trypsin (Bos taurus, UniProt P00760); assay: Inactivation rate of bovine trypsin, incubation method; type: biochemical; details: Table II; 0.13 μM trypsin, 0.25-42 μM inhibitor, 80 mM Hepes pH 7.5, 1 mM CaCl2, 8% DMSO, 25° C.; NI = no inhibition
T2 sequence (P00760 24-246): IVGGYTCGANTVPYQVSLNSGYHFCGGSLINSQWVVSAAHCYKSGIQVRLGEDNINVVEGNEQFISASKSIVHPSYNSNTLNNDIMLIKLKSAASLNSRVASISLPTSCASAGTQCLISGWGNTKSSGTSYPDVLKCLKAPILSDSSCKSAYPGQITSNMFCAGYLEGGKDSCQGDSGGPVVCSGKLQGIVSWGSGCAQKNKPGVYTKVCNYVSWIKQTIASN
Summary of the method: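 Incubation method: trypsin pre-incubated with inhibitor (0.25-42 μM) at 25° C in 80 mM Hepes, 1 mM CaCl2, pH 7.5, 8% DMSO; aliquots withdrawn over time for residual activity on Z-Arg-SBzl thioester with DTNB or 4,4'-dithiodipyridine. Pseudo-first-order kobs from ln vt/vo versus time.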

human thrombin = biological target: T3, human thrombin (Homo sapiens, UniProt P00734); type: biochemical; details: 25° C., NI = no inhibition
T3 construct: bovine trypsin, human thrombin
Summary of the method: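 Irreversible inactivation followed by incubation method at 25 °C: 0.07 μM thrombin with 0.25–42 μM inhibitor in 80 mM Hepes pH 7.5, 428 mM NaCl, 8% DMSO. Residual activity of withdrawn aliquots measured with thioester or 4-nitroanilide substrates; kobs from pseudo-first-order fits.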

[2] = Hydrolysis (stability) in human plasma; type: in vitro ADME
Text: Furthermore, they show excellent stability in human plasma. For example Suc-Val-Pro-Phe^P (OPh)2 has a hydrolysis half-time in human plasma of about 20 hrs. […] Thus they can be used under a variety of conditions. Phosphonates have the additional advantage of being very stable in plasma and will have a high effectiveness in vivo due to their long lifetimes.

plasmin = biological target: T4, plasmin (Homo sapiens, UniProt P00747); assay: Inactivation rate of plasmin, incubation method; type: biochemical; details: Table III; enzyme 0.06-0.5 μM, inhibitor 0.25-42 μM, 9% DMSO, 25° C.; NI = no inhibition
T4 construct: factor Xa, plasmin, and urokinase
T4 sequence (P00747 581-810 limits assumed, species assumed): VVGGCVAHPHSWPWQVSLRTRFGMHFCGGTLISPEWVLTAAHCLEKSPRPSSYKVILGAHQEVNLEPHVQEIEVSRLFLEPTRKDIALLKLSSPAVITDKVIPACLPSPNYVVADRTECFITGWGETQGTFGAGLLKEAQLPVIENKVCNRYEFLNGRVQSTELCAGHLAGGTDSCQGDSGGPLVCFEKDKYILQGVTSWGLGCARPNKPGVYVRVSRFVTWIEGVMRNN
T4 sequence (P00747 97-580 partner limits assumed, species assumed): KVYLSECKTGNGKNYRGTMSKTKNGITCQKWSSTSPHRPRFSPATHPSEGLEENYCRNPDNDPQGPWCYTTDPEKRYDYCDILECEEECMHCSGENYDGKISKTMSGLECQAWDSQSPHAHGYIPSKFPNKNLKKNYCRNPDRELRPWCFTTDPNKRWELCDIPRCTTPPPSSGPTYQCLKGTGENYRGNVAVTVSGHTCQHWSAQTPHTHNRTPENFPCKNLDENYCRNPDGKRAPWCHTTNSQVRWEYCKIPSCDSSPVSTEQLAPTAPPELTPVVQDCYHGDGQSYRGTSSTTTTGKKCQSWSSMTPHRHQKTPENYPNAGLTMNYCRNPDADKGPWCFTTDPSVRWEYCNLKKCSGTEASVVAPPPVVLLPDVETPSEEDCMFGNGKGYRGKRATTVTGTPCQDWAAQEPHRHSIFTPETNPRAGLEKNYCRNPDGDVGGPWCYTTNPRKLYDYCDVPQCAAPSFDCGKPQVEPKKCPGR
Method: as §1
(§4) ^a Enzyme (0.06-0.5 μM) was incubated with the inhibitor (0.25-42
(§5) μM) in 250 μL of the proper buffer containing 9% DMSO at 25°
(§6) C. The final inhibition reaction mixtures are given in the footnote to
(§7) Table 1. Aliquots of 25 μL were withdrawn at various intervals and the
as §2, §3
^b Inhibitor concentration of 0.24 mM.

mast cell tryptase = mast cell tryptase (Homo sapiens, UniProt Q15661); assay: Inactivation rate of mast cell tryptase, incubation method; type: biochemical; details: Table III; enzyme 0.06-0.5 μM, inhibitor 0.25-42 μM, 9% DMSO, 25° C.; NI = no inhibition
Sequence of mast cell tryptase (Q15661 31-275): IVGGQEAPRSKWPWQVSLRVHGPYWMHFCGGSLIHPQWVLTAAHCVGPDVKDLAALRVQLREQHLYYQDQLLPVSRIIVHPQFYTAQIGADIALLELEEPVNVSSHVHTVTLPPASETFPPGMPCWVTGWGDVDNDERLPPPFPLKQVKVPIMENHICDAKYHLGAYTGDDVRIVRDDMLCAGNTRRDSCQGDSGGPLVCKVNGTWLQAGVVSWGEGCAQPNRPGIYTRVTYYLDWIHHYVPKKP
Summary of the method: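 Incubation method at 25 °C: 0.07 μM tryptase with 20–66 μM inhibitor in Hepes pH 7.5 containing heparin, glycerol and DMSO. Aliquots were withdrawn at intervals for residual activity on Z-Arg-SBzl or Z-Lys-SBzl with DTNB. Pseudo-first-order kobs came from ln(vt/v0) versus time.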

urokinase = urokinase (Homo sapiens, UniProt P00749); assay: Inactivation rate of urokinase, incubation method; type: biochemical; details: Table III; enzyme 0.06-0.5 μM, inhibitor 0.25-42 μM, 9% DMSO, 25° C.; NI = no inhibition
Method: as §1, §4, §5, §6, §7, §2, §3

bovine trypsin [3] = biological target: T2, bovine trypsin; assay: Inactivation rate of bovine trypsin, incubation method; type: biochemical; details: Table III; enzyme 0.06-0.5 μM, inhibitor 0.25-42 μM, 9% DMSO, 25° C.; NI = no inhibition
[4] = Table II, 0.07 μM thrombin, 0.25-42 μM inhibitor, 80 mM Hepes pH 7.5, 428 mM NaCl, 8% DMSO
[5] = Table III, enzyme 0.06-0.5 μM, inhibitor 0.25-42 μM, 9% DMSO

T1 sequence (P00742 235-488 limits assumed): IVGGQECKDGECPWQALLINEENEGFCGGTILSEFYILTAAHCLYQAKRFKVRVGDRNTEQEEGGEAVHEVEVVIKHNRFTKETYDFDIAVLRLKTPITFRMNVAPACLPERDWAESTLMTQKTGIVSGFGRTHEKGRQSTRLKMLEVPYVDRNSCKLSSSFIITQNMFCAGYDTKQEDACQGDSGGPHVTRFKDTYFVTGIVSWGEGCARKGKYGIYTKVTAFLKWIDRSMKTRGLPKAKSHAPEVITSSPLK
T1 sequence (P00742 41-179 partner limits assumed): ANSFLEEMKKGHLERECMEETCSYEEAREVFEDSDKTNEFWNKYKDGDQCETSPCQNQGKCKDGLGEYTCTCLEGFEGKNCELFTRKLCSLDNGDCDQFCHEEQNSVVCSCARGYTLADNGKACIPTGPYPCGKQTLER

With `CC(C)CC(NC(=O)OC(C)(C)C)C(=O)NC(CC(=O)OC(C)(C)C)C(=O)N1CCCC1C(=O)NC(c1ccc(C(=N)N)cc1)P(=O)(Oc1ccccc1)Oc1ccccc1` (mixture of isomers) [Boc--Leu--Asp(O-t-Bu)--Pro-(4-AmPhGly)^P (OPh)2] the “kobs /[I] factor Xa” value (factor Xa) was 8 ± 1 M⁻¹ s⁻¹, the “kobs /[I] bovine trypsin” value (bovine trypsin [1]) was 670 ± 53 M⁻¹ s⁻¹ and the “kobs /[I] human thrombin” value (human thrombin; [4]) was 502 ± 21 M⁻¹ s⁻¹.

In the case of `CC(C)(C)OC(=O)NC(CO)C(=O)NC(c1ccc(C(=N)N)cc1)P(=O)(Oc1ccccc1)Oc1ccccc1` (mixture of isomers) [Boc--Ser-(4-AmPhGly)^P (OPh)2], the “kobs /[I] factor Xa” value (factor Xa) is reported as 3.5 ± 0.4 M⁻¹ s⁻¹, the “kobs /[I] bovine trypsin” value (bovine trypsin [1]) is reported as 20 ± 1 M⁻¹ s⁻¹ and the “kobs /[I] human thrombin” value (human thrombin; [4]) is reported as 31 ± 2 M⁻¹ s⁻¹.

In the case of `CC(C)CC(N)C(=O)NC(CC(=O)O)C(=O)N1CCCC1C(=O)NC(c1ccc(C(=N)N)cc1)P(=O)(Oc1ccccc1)Oc1ccccc1` (mixture of isomers) [Leu--Asp--Pro-(4-AmPhGly)^P (OPh)2], the “kobs /[I] factor Xa” value (factor Xa) is reported as 1.3 ± 0.2 M⁻¹ s⁻¹, the “kobs /[I] bovine trypsin” value (bovine trypsin [1]) is reported as 204 ± 19 M⁻¹ s⁻¹ and the “kobs /[I] human thrombin” value (human thrombin; [4]) is reported as 65 ± 1 M⁻¹ s⁻¹.

In the case of `CC(C)CC(NC(=O)C(Cc1ccccc1)NC(=O)OC(C)(C)C)C(=O)NC(c1ccc(C(=N)N)cc1)P(=O)(Oc1ccccc1)Oc1ccccc1` (mixture of isomers) [Boc--D--Phe--Leu-(4-AmPhGly)^P (OPh)2], the “kobs /[I] factor Xa” value (factor Xa) is reported as 1.4 ± 0.4 M⁻¹ s⁻¹, the “kobs /[I] bovine trypsin” value (bovine trypsin [1]) is reported as 24 ± 2 M⁻¹ s⁻¹ and the “kobs /[I] human thrombin” value (human thrombin; [4]) is reported as 921 ± 44 M⁻¹ s⁻¹.

With `N=C(N)c1ccc(C(NC(=O)CNC(=O)C(CCC(=O)O)NC(=O)OCc2ccccc2)P(=O)(Oc2ccccc2)Oc2ccccc2)cc1` (mixture of isomers) [Cbz--Glu--Gly-(4-AmPhGly)^P (OPh)2] the “kobs /[I] factor Xa” value (factor Xa) was 1.4 ± 0.1 M⁻¹ s⁻¹, the “kobs /[I] bovine trypsin” value (bovine trypsin [1]) was 70 ± 5 M⁻¹ s⁻¹ and the “kobs /[I] human thrombin” value (human thrombin; [4]) was 46 ± 5 M⁻¹ s⁻¹.

With `CC(C)(C)OC(=O)NC(Cc1ccccc1)C(=O)NCC(=O)NC(c1ccc(C(=N)N)cc1)P(=O)(Oc1ccccc1)Oc1ccccc1` (mixture of isomers) [Boc--D--Phe--Gly-(4-AmPhGly)^P (OPh)2] the “kobs /[I] factor Xa” value (factor Xa) was 2.8 ± 0 M⁻¹ s⁻¹, the “kobs /[I] bovine trypsin” value (bovine trypsin [1]) was 6,620 ± 835 M^-1 s^-1 and the “kobs /[I] human thrombin” value (human thrombin; [4]) was 2,225 ± 106 M^-1 s^-1.

For `CC(C)[C@H](NC(=O)CCC(=O)O)C(=O)N1CCC[C@H]1C(=O)NC(Cc1ccccc1)P(=O)(Oc1ccccc1)Oc1ccccc1` (stereo partly drawn) [Suc-Val-Pro-Phe^P (OPh)2], the “hydrolysis half-time in human plasma” value [2] was “about 20 hrs”.

With `CC(C)(C)OC(=O)NC(Cc1ccccc1)C(=O)N1CCCC1C(=O)NC(CCCCN)P(=O)(Oc1ccccc1)Oc1ccccc1` (mixture of isomers) [Boc--D--Phe--Pro--Lys^P (OPh)2] the “kobs /[I] plasmin” value (plasmin) was 51 ± 4 M⁻¹ s⁻¹, the “kobs /[I] mast cell tryptase” value (mast cell tryptase) was 68 ± 4 M⁻¹ s⁻¹ and the “kobs /[I] human thrombin” value (human thrombin; [5]) was 9,364 ± 110 M^-1 s^-1. The “kobs /[I] urokinase” value (urokinase) was 38 ± 3 M⁻¹ s⁻¹ and the “kobs /[I] bovine trypsin” value (bovine trypsin [3]) was 28,840 ± 1,800 M^-1 s^-1.

With `NCCCCC(NC(=O)[C@@H]1CCCN1C(=O)CC(c1ccccc1)c1ccccc1)P(=O)(Oc1ccccc1)Oc1ccccc1` (stereo partly drawn) [3,3-Diphenylpropanoyl-Pro--Lys^P (OPh)2] the “kobs /[I] plasmin” value (plasmin) was 7.0 ± 0.2 M⁻¹ s⁻¹, the “kobs /[I] mast cell tryptase” value (mast cell tryptase) was 74 ± 9 M⁻¹ s⁻¹ and the “kobs /[I] human thrombin” value (human thrombin; [5]) was 27,450 ± 803 M^-1 s^-1. The “kobs /[I] urokinase” value (urokinase) was 1.5 ± 0.0 M⁻¹ s⁻¹ and the “kobs /[I] bovine trypsin” value (bovine trypsin [3]) was 14,447 ± 905 M^-1 s^-1.

In the case of `NCCCCC(NC(=O)C1CCCN1C(=O)CNS(=O)(=O)Cc1ccccc1)P(=O)(Oc1ccccc1)Oc1ccccc1` (mixture of isomers) [PhCH2 SO2 --Gly--Pro--Lys^P (OPh)2], the “kobs /[I] plasmin” value (plasmin) is reported as 13 ± 1 M⁻¹ s⁻¹, the “kobs /[I] mast cell tryptase” value (mast cell tryptase) is reported as 24 ± 0 M⁻¹ s⁻¹ and the “kobs /[I] human thrombin” value (human thrombin; [5]) is reported as 649 ± 14 M⁻¹ s⁻¹. The “kobs /[I] urokinase” value (urokinase) was 39 ± 2 M⁻¹ s⁻¹ and the “kobs /[I] bovine trypsin” value (bovine trypsin [3]) was 12,472 ± 1,400 M^-1 s^-1.

In the case of `Cl.NCCCCC(NC(=O)[C@@H]1CCCN1C(=O)c1cccc(Oc2ccccc2)c1)P(=O)(Oc1ccccc1)Oc1ccccc1` (stereo partly drawn) [3-Phenoxybenzoyl-Pro--Lys^P (OPh)2, Diphenyl 1-(N-(3-Phenoxybenzoylprolyl)amino)-5-aminopentanephosphonate Hydrochloride], the “kobs /[I] plasmin” value (plasmin) is reported as 7.4 ± 0.6 M⁻¹ s⁻¹, the “kobs /[I] mast cell tryptase” value (mast cell tryptase) is reported as 16 ± 1 M⁻¹ s⁻¹ and the “kobs /[I] human thrombin” value (human thrombin; [5]) is reported as 1,142 ± 52 M^-1 s^-1. The “kobs /[I] urokinase” value (urokinase) was 1.6 ± 0.1 M⁻¹ s⁻¹ and the “kobs /[I] bovine trypsin” value (bovine trypsin [3]) was 19,380 ± 300 M^-1 s^-1.

With `CC(C)CC(NC(=O)OC(C)(C)C)C(=O)NCC(=O)NC(c1ccc(C(=N)N)cc1)P(=O)(Oc1ccccc1)Oc1ccccc1` (mixture of isomers) [Boc--D--Leu--Gly-(4-AmPhGly)^P (OPh)2] the “kobs /[I] factor Xa” value (factor Xa) was 10 ± 0.4 M⁻¹ s⁻¹, the “kobs /[I] bovine trypsin” value (bovine trypsin [1]) was 2,960 ± 300 M^-1 s^-1 and the “kobs /[I] human thrombin” value (human thrombin; [4]) was 1,187 ± 76 M^-1 s^-1.
